The assay concerns human peripheral blood mononuclear cells (hPBMCs). Briefly: Cytokine induction in human peripheral blood mononuclear cells. Format: cell-based. Particulars: PBMC, hPBMC, 24 hours. The source says: Experimental Example 2: Experimental Procedure for Peripheral Blood Mononuclear Cell
TLR8 is a receptor for the innate immune system to sense exogenous pathogens, and can recognize exogenous viral single-stranded RNA and cause the release of a series of cytokines such as TNF-α, IL-12, IFN-γ to elicit an antiviral immune response; TLR7 is another receptor for the innate immune system to sense exogenous pathogens and, when activated, produces primarily such antiviral cytokines as IFN-α. In this experiment, a potential compound of TLR8 agonist was used to stimulate human peripheral blood mononuclear cells (hPBMCs), and the levels of TNF-α, IL-12p40, IFN-γ and IFN-α above were measured to reflect the activation of the compound on TLR8 receptor and its selectivity for TLR8/TLR7.
The experimental procedures are as follows: • 1. Fresh blood of healthy volunteers was collected, and anticoagulated with an EDTA-K2 anticoagulation tube (catalog No. BD-8516542); • 2. hPBMC cells in the middle cloud-like layer were separated after Ficoll density gradient centrifugation, and washed twice with RPMI1640 (source: Gibco, catalog No. 224400-089) containing 10% serum, and the culture medium was resuspended to 10 mL. After the cells were counted with Vi-cell cell counter, the concentration of cell suspension was adjusted to 2×10^6/mL; • 3. The compound was dissolved in DMSO to 100 mM, and diluted to 50 mM and 2 mM with DMSO, which were served as initial concentrations. Then the solutions were each diluted sequentially in a 3-fold gradient (sample at a previous concentration (5 μL)+DMSO (10 μL)) to obtain 8 gradients. The resulting solutions were respectively subjected to 500-fold dilution with the culture medium to prepare the working solutions of the compound; • 4. 100 μL of hPBMC suspension and 100 μL of compound working solution were added to each well of a U-bottom 96-well plate, with the final concentrations being 2000 nM, 666.7 nM, 222.2 nM, 74.1 nM, 24.7 nM, 8.2 nM, 2.7 nM and 0.9 nM respectively, and incubated for 24 hours. Then the supernatants were collected and cryopreserved at −20° C. for the detection of TNF-α, IFN-γ and IL-12p40 cytokines. The other group of compound samples, with the final concentrations being 50 μM, 16.7 μM, 5.6 μM, 1.9 μM, 0.6 μM, 0.2 μM, 0.1 μM and 0.02 μM respectively, were incubated for 24 hours. […] IL-12p40, TNF-α and IFN-γ in the supernatant were detected by flow cytometric bead array (CBA); IFN-α in the cell supernatant was detected by enzyme-linked immuno sorbent assay (ELISA). • 6. Data analysis: compound activity: EC50 values (half maximal effect concentration) were analyzed using a GraphPad Prism software and the dose-response curves of the compound were fitted to calculate EC50 values for the compound.

Structures are written as SMILES. Where a name gives a salt, the structure may show the parent alone. Read-outs that look alike come from different tables or passages of the source.

For orientation: EC50 means the midpoint of the concentration-response curve. As for `CCCC[C@](C)(Cc1ncn[nH]1)Nc1nc(N)nc2cnccc12` [Hydrochloride of Example 1], the EC50 runs as follows: (CBA, TLR8 pathway cytokine, read-out: IFN-γ EC50) 29 nM; (CBA, TLR8 pathway cytokine, read-out: IL-12p40 EC50) 26 nM; (CBA, TLR8 pathway cytokine, read-out: TNF-α EC50) 105 nM; (ELISA, TLR7 pathway cytokine, read-out: IFN-α EC50) 2800 nM.
